Source: ChEMBL document CHEMBL3046749, “Synthesis and antimicrobial activity of novel bis-azaphenothiazines” (2013)
≈ marks a conversion by molar mass, not a printed value. Calls of active or inactive are those of the source. The calls are words filed in the database; no cut-off is given here.

Assays:
Type in all cases: functional
Bacillus subtilis [1] = test: Antibacterial activity against Bacillus subtilis MTCC 441 at 100 ug/ml after 16 to 18 hr by cup-plate method; settings: read-out: IZ
Salmonella typhi [2] = test: Antibacterial activity against Salmonella enterica subsp. enterica serovar Typhi MTCC 733 at 100 ug/ml after 16 to 18 hr by cup-plate method; settings: read-out: IZ
Klebsiella pneumoniae [3] = test: Antibacterial activity against Klebsiella pneumoniae MTCC 432 after 16 hr by cup-plate method; settings: MTCC 432, 16 h
Pseudomonas aeruginosa [4] = test: Antibacterial activity against Pseudomonas aeruginosa MTCC 424 after 16 hr by cup-plate method; settings: MTCC 424, 16 h
Bacillus subtilis [5] = test: Antibacterial activity against Bacillus subtilis MTCC 441 after 16 hr by cup-plate method; settings: MTCC 441, 16 h
Staphylococcus aureus [6] = test: Antibacterial activity against Staphylococcus aureus MTCC 096 at 100 ug/ml after 16 to 18 hr by cup-plate method; settings: read-out: IZ
Escherichia coli [7] = test: Antibacterial activity against Escherichia coli MTCC 443 after 16 hr by cup-plate method; settings: MTCC 443, 16 h
Pseudomonas aeruginosa [8] = test: Antibacterial activity against Pseudomonas aeruginosa MTCC 424 at 100 ug/ml after 16 to 18 hr by cup-plate method; settings: read-out: IZ
Klebsiella pneumoniae [9] = test: Antibacterial activity against Klebsiella pneumoniae MTCC 432 at 100 ug/ml after 16 to 18 hr by cup-plate method; settings: read-out: IZ
Staphylococcus aureus [10] = test: Antibacterial activity against Staphylococcus aureus MTCC 096 after 16 hr by cup-plate method; settings: MTCC 096, 16 h
Salmonella typhi [11] = test: Antibacterial activity against Salmonella enterica subsp. enterica serovar Typhi MTCC 733 after 16 hr by cup-plate method; settings: MTCC 733, 16 h
[12] = tested on: Staphylococcus epidermidis; test: Antibacterial activity against Staphylococcus epidermidis MTCC 435 after 16 hr by cup-plate method; settings: MTCC 435, 16 h
[13] = tested on: Staphylococcus epidermidis; test: Antibacterial activity against Staphylococcus epidermidis MTCC 435 at 100 ug/ml after 16 to 18 hr by cup-plate method; settings: read-out: IZ
Escherichia coli [14] = test: Antibacterial activity against Escherichia coli MTCC 443 at 100 ug/ml after 16 to 18 hr by cup-plate method; settings: read-out: IZ
Aspergillus flavus [15] = test: Antifungal activity against Aspergillus flavus MTCC 277 at 100 ug/ml after 28 to 30 hr by cup-plate method; settings: read-out: IZ
Aspergillus flavus [16] = test: Antifungal activity against Aspergillus flavus MTCC 277 after 28 to 30 hr by cup-plate method
Aspergillus niger [17] = test: Antifungal activity against Aspergillus niger MTCC 282 at 100 ug/ml after 28 to 30 hr by cup-plate method
Aspergillus fumigatus [18] = test: Antifungal activity against Aspergillus fumigatus MTCC 343 after 28 to 30 hr by cup-plate method
Candida albicans [19] = test: Antifungal activity against Candida albicans MTCC 227 at 100 ug/ml after 28 to 30 hr by cup-plate method; settings: read-out: IZ
Candida albicans [20] = test: Antifungal activity against Candida albicans MTCC 227 after 28 to 30 hr by cup-plate method
Aspergillus fumigatus [21] = test: Antifungal activity against Aspergillus fumigatus MTCC 343 at 100 ug/ml after 28 to 30 hr by cup-plate method; settings: for zone of inhibition at 100 µg/mL: read-out: IZ
Aspergillus niger [22] = test: Antifungal activity against Aspergillus niger MTCC 282 after 28 to 30 hr by cup-plate method

SMILES: O=C(O)c1cn(C2CC2)c2cc(N3CCNCC3)c(F)cc2c1=O [CIPROFLOXACIN]
- zone of inhibition at 100 µg/mL (Bacillus subtilis [1]): 18 mm
- zone of inhibition at 100 µg/mL (Salmonella typhi [2]): 19 mm
- MIC (Klebsiella pneumoniae [3]): 6.25 µg/mL (≈ 18.9 µM)
- MIC (Pseudomonas aeruginosa [4]): 6.25 µg/mL (≈ 18.9 µM)
- MIC (Bacillus subtilis [5]): 6.25 µg/mL (≈ 18.9 µM)
- zone of inhibition at 100 µg/mL (Staphylococcus aureus [6]): 19 mm
- MIC (Escherichia coli [7]): 6.25 µg/mL (≈ 18.9 µM)
- zone of inhibition at 100 µg/mL (Pseudomonas aeruginosa [8]): 18 mm
- zone of inhibition at 100 µg/mL (Klebsiella pneumoniae [9]): 17 mm
- MIC (Staphylococcus aureus [10]): 6.25 µg/mL (≈ 18.9 µM)
- MIC (Salmonella typhi [11]): 6.25 mM (≈ 2070 µg/mL)
- MIC [12]: 6.25 µg/mL (≈ 18.9 µM)
- zone of inhibition at 100 µg/mL [13]: 16 mm

SMILES: CC(=O)Nc1ccccc1Sc1ncccc1[N+](=O)[O-]
- zone of inhibition at 100 µg/mL (Bacillus subtilis [1]): 12 mm
- zone of inhibition at 100 µg/mL (Salmonella typhi [2]): 12 mm
- MIC (Klebsiella pneumoniae [3]): 50 µg/mL (≈ 173 µM)
- MIC (Pseudomonas aeruginosa [4]): 12.5 µg/mL (≈ 43.2 µM)
- MIC (Bacillus subtilis [5]): 25 µg/mL (≈ 86.4 µM)
- zone of inhibition at 100 µg/mL (Staphylococcus aureus [6]): 11 mm
- MIC (Escherichia coli [7]): > 50 µg/mL
- zone of inhibition at 100 µg/mL (Escherichia coli [14]): 10 mm
- zone of inhibition at 100 µg/mL (Pseudomonas aeruginosa [8]): 12 mm
- zone of inhibition at 100 µg/mL (Aspergillus flavus [15]): 12 mm
- MIC (Aspergillus flavus [16]): 12.5 µg/mL (≈ 43.2 µM)
- inhibition zone (IZ) (Aspergillus niger [17]): inactive
- zone of inhibition at 100 µg/mL (Klebsiella pneumoniae [9]): 11 mm
- MIC (Staphylococcus aureus [10]): > 50 µg/mL
- MIC (Aspergillus fumigatus [18]): > 50 µg/mL
- MIC [12]: 25 µg/mL (≈ 86.4 µM)
- zone of inhibition at 100 µg/mL (Candida albicans [19]): 12 mm
- MIC (Candida albicans [20]): 12.5 µg/mL (≈ 43.2 µM)
- inhibition zone (IZ) (Aspergillus fumigatus [21]): inactive
- zone of inhibition at 100 µg/mL [13]: 11 mm
- MIC (Aspergillus niger [22]): > 50 µg/mL

SMILES: Brc1ccc2c(c1)Sc1cccnc1N2CCCCN1c2ccc(Br)cc2Sc2cccnc21
- zone of inhibition at 100 µg/mL (Bacillus subtilis [1]): 11 mm
- zone of inhibition at 100 µg/mL (Salmonella typhi [2]): 10 mm
- MIC (Klebsiella pneumoniae [3]): 50 µg/mL (≈ 81.6 µM)
- MIC (Pseudomonas aeruginosa [4]): 12.5 µg/mL (≈ 20.4 µM)
- MIC (Bacillus subtilis [5]): 50 µg/mL (≈ 81.6 µM)
- zone of inhibition at 100 µg/mL (Staphylococcus aureus [6]): 12 mm
- MIC (Escherichia coli [7]): 12.5 µg/mL (≈ 20.4 µM)
- zone of inhibition at 100 µg/mL (Escherichia coli [14]): 12 mm
- zone of inhibition at 100 µg/mL (Pseudomonas aeruginosa [8]): 12 mm
- zone of inhibition at 100 µg/mL (Aspergillus flavus [15]): 10 mm
- MIC (Aspergillus flavus [16]): > 50 µg/mL
- zone of inhibition at 100 µg/mL (Aspergillus niger [17]; read-out: IZ): 11 mm
- zone of inhibition at 100 µg/mL (Klebsiella pneumoniae [9]): 11 mm
- MIC (Staphylococcus aureus [10]): 12.5 µg/mL (≈ 20.4 µM)
- MIC (Aspergillus fumigatus [18]): 12.5 µg/mL (≈ 20.4 µM)
- MIC [12]: 25 µg/mL (≈ 40.8 µM)
- zone of inhibition at 100 µg/mL (Candida albicans [19]): 11 mm
- MIC (Candida albicans [20]): 50 µg/mL (≈ 81.6 µM)
- zone of inhibition at 100 µg/mL (Aspergillus fumigatus [21]): 12 mm
- zone of inhibition at 100 µg/mL [13]: 11 mm
- MIC (Aspergillus niger [22]): 50 µg/mL (≈ 81.6 µM)

SMILES: Brc1ccc2c(c1)Sc1cccnc1N2C/C=C/CN1c2ccc(Br)cc2Sc2cccnc21
- zone of inhibition at 100 µg/mL (Bacillus subtilis [1]): 11 mm
- zone of inhibition at 100 µg/mL (Salmonella typhi [2]): 11 mm
- MIC (Klebsiella pneumoniae [3]): 50 µg/mL (≈ 81.9 µM)
- MIC (Pseudomonas aeruginosa [4]): > 50 µg/mL
- MIC (Bacillus subtilis [5]): 25 µg/mL (≈ 41 µM)
- zone of inhibition at 100 µg/mL (Staphylococcus aureus [6]): 12 mm
- MIC (Escherichia coli [7]): 12.5 µg/mL (≈ 20.5 µM)
- zone of inhibition at 100 µg/mL (Escherichia coli [14]): 12 mm
- zone of inhibition at 100 µg/mL (Pseudomonas aeruginosa [8]): 10 mm
- zone of inhibition at 100 µg/mL (Aspergillus flavus [15]): 11 mm
- MIC (Aspergillus flavus [16]): > 50 µg/mL
- inhibition zone (IZ) (Aspergillus niger [17]): inactive
- zone of inhibition at 100 µg/mL (Klebsiella pneumoniae [9]): 11 mm
- MIC (Staphylococcus aureus [10]): 25 µg/mL (≈ 41 µM)
- MIC (Aspergillus fumigatus [18]): 12.5 µg/mL (≈ 20.5 µM)
- MIC [12]: > 50 µg/mL
- zone of inhibition at 100 µg/mL (Candida albicans [19]): 10 mm
- MIC (Candida albicans [20]): > 50 µg/mL
- zone of inhibition at 100 µg/mL (Aspergillus fumigatus [21]): 12 mm
- zone of inhibition at 100 µg/mL [13]: 11 mm
- MIC (Aspergillus niger [22]): > 50 µg/mL
